According to article PMC4411097, “Pachymic Acid Inhibits Growth and Induces Apoptosis of Pancreatic Cancer In Vitro and In Vivo by Targeting ER Stress” (PLoS ONE, 2015):

How the values were obtained:
[1] = system: advanced pancreatic cancer; conditions: cited from earlier work
MIA PaCa-2 cells = experiment: Apoptosis, Cell Death Detection ELISA (cytoplasmic histone-associated DNA fragments); format: cell-based, human; conditions: MIA PaCa-2, TUDCA 200 μM with PA 30 μM, 24 h
Description: (§1) Apoptosis induction in PA-treated cells was assessed by quantitation of cytoplasmic histone-associated DNA fragments and western blotting for PARP cleavage (c-PARP). The Cell Death Detection ELISA^PLUS Kit (Roche, Indianapolis, IN) was used to detect the amount of cytoplasmic histone-associated DNA fragments according to the manufacturer’s instructions and expressed relative to vehicle-treated cells (set equal to 1).

PANC-1 cells = experiment: as above; format: cell-based, human; conditions: PANC-1, TUDCA 200 μM with PA 30 μM, 24 h
Description: as §1

[2] = system: PARP cleavage (c-PARP) in MIA PaCa-2 cells; experiment: Western blot for PARP cleavage (c-PARP); format: cell-based, human; conditions: MIA PaCa-2, TUDCA 200 μM with PA 30 μM, 24 h
Description: as §1
(§2) PANC-1, MIA PaCa-2 cells were treated with PA (0–30 μM) for 10 min, 30 min or 24 h, respectively. Whole protein extracts isolated from cells and tumor tissues were prepared and western blot analysis with anti-cleaved PARP, anti-XBP-1s, anti-ATF6, anti-ATF4, anti-Hsp70, anti-CHOP, anti-phospho-eIF2α or anti-eIF2α antibodies were performed as previously described. Western blots were quantified with HP-Scanjet 550c and analyzed by UN-SCAN-IT software (Silk Scientific, Orem, UT). Three independent experiments were done for all the immunoblot studies and quantitative data composed of all the experiments with statistical analysis were added below the representative blot image.

[3] = system: PARP cleavage (c-PARP) in PANC-1 cells; experiment: Western blot for PARP cleavage (c-PARP); format: cell-based, human; conditions: PANC-1, TUDCA 200 μM with PA 30 μM, 24 h
Description: as §1, §2

[4] = system: ER stress response proteins in MIA PaCa-2 cells; experiment: Western blot of ER stress response proteins; format: cell-based, human; conditions: MIA PaCa-2, TUDCA 200 μM with PA 30 μM, 24 h
Description: as §2

[5] = system: ER stress response proteins in PANC-1 cells; experiment: Western blot of ER stress response proteins; format: cell-based, human; conditions: PANC-1, TUDCA 200 μM with PA 30 μM, 24 h
Description: as §2

SMILES	Response rate ([1]; advanced pancreatic cancer)	Median survival time ([1]; pancreatic cancer)	Tumor response rate ([1]; pancreatic cancer)	Effect of TUDCA on PA-associated nuclear DNA fragmentation (MIA PaCa-2 cells)	Effect of TUDCA on PA-associated nuclear DNA fragmentation (PANC-1 cells)	Effect of TUDCA on PA-associated c-PARP expression [2]	Effect of TUDCA on PA-associated c-PARP expression [3]	Effect of TUDCA on PA-induced ATF4 and CHOP [4]	Effect of TUDCA on PA-induced ATF4 and CHOP [5]
Nc1ccn([C@@H]2O[C@H](CO)[C@@H](O)C2(F)F)c(=O)n1 [Gemcitabine]	less than 20%	5 months	12%						
C[C@H](CCC(=O)NCCS(=O)(=O)O)[C@H]1CC[C@H]2[C@@H]3[C@@H](O)C[C@@H]4C[C@H](O)CC[C@]4(C)[C@H]3CC[C@]12C [TUDCA, tauroursodeoxycholic acid, reference compound]				rescued	rescued	blocked the enormous increase in the expression of c-PARP	blocked the enormous increase in the expression of c-PARP	blocked the induction of ATF4 and CHOP	blocked the induction of ATF4 and CHOP
